Data on eleven compounds can be found in PubChem BioAssay AID330 (DTP/NCI, 2004).

The experiment deals with P388 leukemia ip, CD2F1 mice, survival T/C. The experiment in a line: NCI In Vivo Anticancer Drug Screen. Data for tumor model P388 Leukemia (intraperitoneal) in CD2F1 (CDF1) mice. The settings on record: endpoint: median survival time, higher = longer survival. The method, boiled down:
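Mice carrying the transplanted tumor received test compound or vehicle. Survival was recorded in each group, and the value is the treated-group measurement divided by that of the vehicle-treated control group.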

Setting [1] is: dose: 50.0 mg/kg/injection, schedule: Q01DX005 (ip), vehicle: saline with Tween-80.
[2] abbreviates: dose: 100.0 mg/kg/injection, schedule: Q01DX005 (ip), vehicle: saline with Tween-80.
The mark [3] stands for this setting: dose: 200.0 mg/kg/injection, schedule: Q01DX005 (ip), vehicle: saline with Tween-80.

“And” between values parts separate entries of the source, which are not always exact repeats. Equal entries are not always repeated. Toxic doses and inconclusive results are not listed.

On to `CCC(C)N=Cc1ccco1` (stereo not drawn), for which the T/C is 101 % of control (dose: 25.0 mg/kg/injection, schedule: Q01DX005 (ip), vehicle: Klucel (hydroxypropylcellulose) (HPC)); 104 % of control (dose: 50.0 mg/kg/injection, schedule: Q01DX005 (ip), vehicle: Klucel (hydroxypropylcellulose) (HPC)); 90 % of control (dose: 100.0 mg/kg/injection, schedule: Q01DX005 (ip), vehicle: Klucel (hydroxypropylcellulose) (HPC)); 99 % of control (dose: 200.0 mg/kg/injection, schedule: Q01DX005 (ip), vehicle: Klucel (hydroxypropylcellulose) (HPC)).
Consider `O=[N+](N=c1ccn([O-])cc1)c1cc[n+]([O-])cc1`, for which the T/C is 107 % of control (dose: 1.56 mg/kg/injection, schedule: Q01DX009 (ip), vehicle: DMSO); 107 % of control (dose: 3.0 mg/kg/injection, schedule: Q01DX009 (ip), vehicle: other); 100 % of control (dose: 3.12 mg/kg/injection, schedule: Q01DX009 (ip), vehicle: DMSO); 102 % of control (dose: 6.0 mg/kg/injection, schedule: Q01DX009 (ip), vehicle: other); 107 % of control (dose: 6.25 mg/kg/injection, schedule: Q01DX009 (ip), vehicle: DMSO); 100 % of control (dose: 12.5 mg/kg/injection, schedule: Q01DX009 (ip), vehicle: DMSO). Also, the T/C by setting is: (dose: 12.5 mg/kg/injection, schedule: Q01DX009 (ip), vehicle: other) 98 % of control; (dose: 25.0 mg/kg/injection, schedule: Q01DX009 (ip), vehicle: DMSO) 100 % of control; (dose: 25.0 mg/kg/injection, schedule: Q01DX009 (ip), vehicle: other) 109 % of control; (dose: 50.0 mg/kg/injection, schedule: Q01DX009 (ip), vehicle: other) 109 % of control.
`Cc1cc(N=[N+]=[N-])c2cc(C3CCCCC3)ccc2n1`: the T/C (dose: 60.0 mg/kg/injection, schedule: Q01DX005 (ip), vehicle: saline with Tween-80) is 94 % of control; the T/C (dose: 120.0 mg/kg/injection, schedule: Q01DX005 (ip), vehicle: saline with Tween-80) is 93 % of control; the T/C (dose: 240.0 mg/kg/injection, schedule: Q01DX005 (ip), vehicle: saline with Tween-80) was 92 % of control.
As for `CC1=C(/C=C/C(C)=C/C=C/C(C)=C/CO)C(C)(C)CCC1`, the T/C was 98 % of control under setting [1]; 94 % of control under setting [2]; 100 % of control (dose: 100.0 mg/kg/injection, schedule: Q04DX003 (ip), vehicle: saline with Tween-80); 116 % of control under setting [3]; 100 % of control (dose: 200.0 mg/kg/injection, schedule: Q04DX003 (ip), vehicle: saline with Tween-80).
With `CCn1c2ccc(N)cc2c2c(N)c(-n3cccc3)ccc21`, the T/C under setting [1] was 100 % of control, the T/C under setting [2] was 100 % of control and the T/C under setting [3] was 100 % of control.
Consider `CN(C)CCN(C=O)CCN(C)C`, for which the T/C (dose: 50.0 mg/kg/injection, schedule: Q01DX005 (ip), vehicle: saline) is 95 % of control; the T/C (dose: 100.0 mg/kg/injection, schedule: Q01DX005 (ip), vehicle: saline) was 88 % of control; the T/C (dose: 200.0 mg/kg/injection, schedule: Q01DX005 (ip), vehicle: saline) is 101 % of control.
As to `C(=N/NC1=NCCN1)/c1c2ccccc2c(/C=N\NC2=NCCN2)c2ccccc12`, the T/C was 155 % of control (dose: 0.05 mg/kg/injection, schedule: Q01DX009 (ip), vehicle: saline); 161 % of control (dose: 0.2 mg/kg/injection, schedule: Q01DX009 (ip), vehicle: saline); 183 % of control (dose: 0.39 mg/kg/injection, schedule: Q01DX009 (ip), vehicle: saline); 238 % of control (dose: 0.78 mg/kg/injection, schedule: Q01DX009 (ip), vehicle: saline); 188 % of control and 193 % of control (dose: 1.56 mg/kg/injection, schedule: Q01DX009 (ip), vehicle: saline); 204 % of control (dose: 3.12 mg/kg/injection, schedule: Q01DX009 (ip), vehicle: saline). Besides, the T/C by setting is: (dose: 5.18 mg/kg/injection, schedule: Q04DX002 (ip), vehicle: saline) 181 % of control; (dose: 6.25 mg/kg/injection, schedule: Q01DX009 (ip), vehicle: saline) 193 % of control; (dose: 7.78 mg/kg/injection, schedule: Q04DX002 (ip), vehicle: saline) 228 % of control; (dose: 8.64 mg/kg/injection, schedule: Q04DX002 (ip), vehicle: saline) 227 % of control; (dose: 12.5 mg/kg/injection, schedule: Q01DX009 (ip), vehicle: saline) 225 % of control; (dose: 13.0 mg/kg/injection, schedule: Q04DX002 (ip), vehicle: saline) 166 % of control. In addition, the T/C reads like this: (dose: 14.4 mg/kg/injection, schedule: Q04DX002 (ip), vehicle: saline) 181 % of control; (dose: 21.6 mg/kg/injection, schedule: Q04DX002 (ip), vehicle: saline) 184 % of control; (dose: 24.0 mg/kg/injection, schedule: Q04DX002 (ip), vehicle: saline) 200 % of control; (dose: 25.0 mg/kg/injection, schedule: Q01DX009 (ip), vehicle: saline) 121 % of control; (dose: 29.0 mg/kg/injection, schedule: Q01DX001 (ip), vehicle: water) 195 % of control; (dose: 36.0 mg/kg/injection, schedule: Q04DX002 (ip), vehicle: saline) 210 % of control. In addition, the T/C (dose: 40.0 mg/kg/injection, schedule: Q04DX002 (ip), vehicle: saline) is 181 % of control; the T/C (dose: 60.0 mg/kg/injection, schedule: Q04DX002 (ip), vehicle: saline) was 192 % of control; the T/C (dose: 87.0 mg/kg/injection, schedule: Q01DX001 (ip), vehicle: water) was 222 % of control; the T/C (dose: 133.0 mg/kg/injection, schedule: Q01DX001 (ip), vehicle: water) is 236 % of control; the T/C (dose: 200.0 mg/kg/injection, schedule: Q01DX001 (ip), vehicle: water) is 286 % of control; the T/C (dose: 1.57 micrograms/kg/injection, schedule: Q01DX009 (ip), vehicle: saline) was 100 % of control. The T/C runs as follows: (dose: 3.13 micrograms/kg/injection, schedule: Q01DX009 (ip), vehicle: saline) 99 % of control; (dose: 6.25 micrograms/kg/injection, schedule: Q01DX009 (ip), vehicle: saline) 107 % of control; (dose: 12.5 micrograms/kg/injection, schedule: Q01DX009 (ip), vehicle: saline) 104 % of control; (dose: 25.0 micrograms/kg/injection, schedule: Q01DX009 (ip), vehicle: saline) 109 % of control; (dose: 50.0 micrograms/kg/injection, schedule: Q01DX009 (ip), vehicle: saline) 122 % of control.
Turning to `O=c1[nH]nc(SCc2ccccc2)c2nncn12`, the T/C reads like this: under setting [1], 97 % of control; under setting [2], 92 % of control; under setting [3], 95 % of control.
For `O=C(CCl)Nc1ccc2c(c1)C(=O)c1cccn1-2`, the T/C (dose: 25.0 mg/kg/injection, schedule: Q01DX001 (ip), vehicle: Klucel (hydroxypropylcellulose) (HPC)) was 97 % of control; the T/C (dose: 25.0 mg/kg/injection, schedule: Q04DX003 (ip), vehicle: Klucel (hydroxypropylcellulose) (HPC)) was 92 % of control; the T/C (dose: 50.0 mg/kg/injection, schedule: Q01DX001 (ip), vehicle: Klucel (hydroxypropylcellulose) (HPC)) is 97 % of control; the T/C (dose: 50.0 mg/kg/injection, schedule: Q04DX003 (ip), vehicle: Klucel (hydroxypropylcellulose) (HPC)) is 97 % of control; the T/C (dose: 100.0 mg/kg/injection, schedule: Q01DX001 (ip), vehicle: Klucel (hydroxypropylcellulose) (HPC)) is 96 % of control; the T/C (dose: 100.0 mg/kg/injection, schedule: Q04DX003 (ip), vehicle: Klucel (hydroxypropylcellulose) (HPC)) is 107 % of control.
With `COc1ccc2c(ccc3c(N)ncnc32)c1`, the T/C was 92 % of control (dose: 100.0 mg/kg/injection, schedule: Q04DX002 (ip), vehicle: saline with Tween-80) and 103 % of control (dose: 200.0 mg/kg/injection, schedule: Q04DX002 (ip), vehicle: saline with Tween-80).
Take `CC1COC2(CC1OC(=O)/C=C/c1ccccc1)OC1CC(C(=O)OC3OC(C)C(O)C(O)C3OC3OC(C)C(O)C(O)C3O)CCC1C21CO1` (stereo not drawn): the T/C is, setting by setting: (dose: 1.88 mg/kg/injection, schedule: Q01DX005 (ip), vehicle: saline + alcohol) 106 % of control; (dose: 3.75 mg/kg/injection, schedule: Q01DX005 (ip), vehicle: saline + alcohol) 106 % of control; (dose: 7.5 mg/kg/injection, schedule: Q01DX005 (ip), vehicle: saline + alcohol) 111 % of control and 118 % of control; (dose: 15.0 mg/kg/injection, schedule: Q01DX005 (ip), vehicle: saline + alcohol) 118 % of control; (dose: 60.0 mg/kg/injection, schedule: Q01DX005 (ip), vehicle: saline + alcohol) 153 % of control.
